# Results published in the supplement of paper PMC10307832.
# Columns and labels:
# Test in all cases: relative viability (nuclei count vs DMSO), 5 days (fraction); higher = more cells survive
# [1] = compound: COc1cc(N2CCC(N3CCN(C)CC3)CC2)ccc1Nc1ncc(Cl)c(Nc2ccccc2S(=O)(=O)C(C)C)n1 [NVP-TAE684] + Nc1nc2[nH]cc(CCc3ccc(C(=O)N[C@@H](CCC(=O)O)C(=O)O)cc3)c2c(=O)[nH]1 [Pemetrexed] (partner 0.2 µM)
# How it was run: (§1)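 A single step with final 0.05% Triton X-100, 1% formaldehyde and 1 ug/ml Hoechst fixed the cells and stained nuclei 5 days after treatment. Lung cancer cell lines in 1536-well plates had been treated by pin tool the day after seeding with one drug alone or a fixed anchor-drug dose plus five library-drug doses (not always all listed) in √10 steps, and nuclei were counted on 4× images. Relative viability is the ratio of nuclei in treated wells to nuclei in vehicle wells, taken as the median of duplicate plates.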
# [2] = compound: COc1cc(N2CCC(N3CCN(C)CC3)CC2)ccc1Nc1ncc(Cl)c(Nc2ccccc2S(=O)(=O)C(C)C)n1 [NVP-TAE684] + Nc1ncn([C@H]2C[C@H](O)[C@@H](CO)O2)c(=O)n1 [Decitabine] (partner 2 µM)
# How it was run: as §1
# [3] = compound: COc1cc(N2CCC(N3CCN(C)CC3)CC2)ccc1Nc1ncc(Cl)c(Nc2ccccc2S(=O)(=O)C(C)C)n1 [NVP-TAE684] + COc1cc2c(Oc3ccc(NC(=O)C4(C(=O)Nc5ccc(F)cc5)CC4)cc3F)ccnc2cc1OCCCN1CCOCC1 [Foretinib] (partner 0.25 µM)
# How it was run: as §1
# [4] = compound: C#Cc1cccc(Nc2ncnc3cc(OC)c(OCCCCCCC(=O)NO)cc23)c1 [CUDC-101] + C[C@@H](Oc1cc(-c2cnn(C3CCNCC3)c2)cnc1N)c1c(Cl)ccc(F)c1Cl [Crizotinib] (partner 1 µM)
# How it was run: as §1
# [5] = compound: COc1cc2/c(=N/c3ccc(Br)cc3F)nc[nH]c2cc1OCC1CCN(C)CC1 [Vandetanib] + CS(=O)(=O)CCNCc1ccc(-c2ccc3ncnc(Nc4ccc(OCc5cccc(F)c5)c(Cl)c4)c3c2)o1 [Lapatinib] (partner 2 µM)
# How it was run: as §1
Cell Line,relative viability ([1]; first compound 0.2 µM),relative viability ([1]; first compound 0.6325 µM),relative viability ([1]; first compound 2 µM),relative viability ([2]; first compound 0.2 µM),relative viability ([2]; first compound 0.6325 µM),relative viability ([2]; first compound 2 µM),relative viability ([3]; first compound 0.2 µM),relative viability ([3]; first compound 0.6325 µM),relative viability ([3]; first compound 2 µM),relative viability ([4]; first compound 0.01 µM),relative viability ([4]; first compound 0.03162 µM),relative viability ([4]; first compound 0.1 µM),relative viability ([4]; first compound 0.3162 µM),relative viability ([4]; first compound 1 µM),relative viability ([5]; first compound 0.02 µM),relative viability ([5]; first compound 0.06325 µM),relative viability ([5]; first compound 0.2 µM),relative viability ([5]; first compound 0.6325 µM),relative viability ([5]; first compound 2 µM)
NCI-H522,1.13,1.07,0.799,0.604,0.731,0.66,–,–,–,–,–,–,–,–,–,–,–,–,–
RERF-LC-KJ,0.484,0.489,0.431,0.689,0.574,0.3,0.853,0.931,0.771,0.771,0.903,0.788,0.825,0.686,0.848,0.839,0.827,0.843,0.878
A-427,–,0.914,0.788,0.58,0.53,0.44,0.952,1.1,0.498,1.05,0.868,0.773,0.829,0.579,0.968,1.02,1.14,1.01,0.74
EKVX,0.376,0.337,0.254,0.317,0.354,0.325,0.51,0.806,0.537,0.977,0.892,0.964,1.07,0.604,0.2,0.184,0.183,0.2,0.215
NCI-H460,0.0526,0.0587,0.0483,0.535,0.51,0.294,1.2,1.02,0.817,1.04,0.982,0.719,1.06,0.787,0.878,0.962,0.969,0.951,0.874
HARA,0.262,0.211,0.233,0.664,0.55,0.234,0.886,0.619,0.517,0.904,0.866,0.89,0.799,0.395,0.676,0.558,0.588,0.773,0.764
NCI-H1944,0.705,0.585,0.631,0.437,0.519,0.413,0.847,0.929,0.533,1.07,1.09,0.954,0.918,0.491,0.818,0.848,0.798,0.845,0.808
BEN,0.843,0.728,0.682,–,0.622,0.643,0.736,0.509,0.555,1.04,0.772,0.933,0.809,0.579,0.75,0.686,0.677,0.742,0.812
PC-14,0.145,0.134,0.124,0.217,0.191,0.0633,0.689,1.12,1.03,0.935,0.825,0.848,0.76,0.301,0.295,0.382,0.308,0.273,0.282
NCI-H322M,0.635,0.593,0.479,0.658,0.619,0.526,0.828,0.827,0.565,0.958,0.903,0.774,0.748,0.538,0.6,0.534,0.567,0.516,0.5
NCI-H1651,0.594,0.566,0.565,0.614,0.566,0.502,0.802,0.883,0.774,0.91,0.803,0.91,0.934,0.813,0.776,0.834,0.743,0.698,0.846
LCLC-97TM1,0.184,0.144,0.114,0.208,0.184,0.153,0.933,0.897,0.278,0.549,0.386,0.443,0.343,0.17,0.864,1.05,0.909,0.841,0.8
NCI-H727,–,–,–,0.836,0.771,0.552,0.855,0.818,0.38,0.913,0.931,0.738,0.647,0.361,0.847,0.661,0.786,0.91,0.625
NCI-H1623,–,–,–,–,–,–,0.865,0.899,0.65,–,–,–,–,–,–,–,–,–,–
NCI-H1666,0.985,0.796,0.77,0.71,0.732,0.597,0.973,0.899,0.801,0.91,0.969,1.15,1.09,0.791,0.59,0.658,0.444,0.739,0.629
IA-LM,–,–,–,–,–,–,1.07,1.07,1.11,0.944,0.91,0.868,0.587,0.466,0.762,0.737,0.953,0.798,0.987
NCI-H1792,0.773,0.799,0.799,0.359,0.558,0.309,–,–,–,0.971,0.944,0.942,1.04,0.953,0.886,0.824,0.869,0.874,0.862
NCI-H1299,–,–,–,–,–,–,1.16,1.14,1.08,0.926,0.957,0.998,0.837,0.934,0.965,0.95,0.892,0.968,0.948

Cell Line,relative viability ([1]; first compound 0.2 µM),relative viability ([1]; first compound 0.6325 µM),relative viability ([1]; first compound 2 µM),relative viability ([2]; first compound 0.2 µM),relative viability ([2]; first compound 0.6325 µM),relative viability ([2]; first compound 2 µM),relative viability ([3]; first compound 0.2 µM),relative viability ([3]; first compound 0.6325 µM),relative viability ([3]; first compound 2 µM),relative viability ([4]; first compound 0.01 µM),relative viability ([4]; first compound 0.03162 µM),relative viability ([4]; first compound 0.1 µM),relative viability ([4]; first compound 0.3162 µM),relative viability ([4]; first compound 1 µM),relative viability ([5]; first compound 0.02 µM),relative viability ([5]; first compound 0.06325 µM),relative viability ([5]; first compound 0.2 µM),relative viability ([5]; first compound 0.6325 µM),relative viability ([5]; first compound 2 µM)
NCI-H1703,–,–,–,–,–,–,0.388,0.325,0.331,1.07,0.707,0.765,0.712,0.477,1.13,–,1.24,0.932,0.417
Calu-6,–,–,–,–,–,–,–,0.878,0.671,0.835,0.958,0.745,0.664,0.547,1.08,0.966,1.12,0.94,1.07
NCI-H2228,0.29,0.332,0.121,–,–,–,0.445,0.238,0.123,0.46,0.551,0.492,0.411,0.318,1.32,0.903,–,1.32,1.23
ChaGo-K-1,0.273,0.246,0.264,0.536,0.52,0.427,0.943,0.818,0.538,1.17,1.14,1.12,1.2,0.924,–,–,–,–,–
NCI-H2342,0.93,0.771,0.493,0.727,0.835,0.632,1.07,1.06,0.545,–,–,–,–,–,–,–,–,–,–
LCLC-103H,0.473,0.48,0.478,0.7,0.69,0.683,0.681,0.681,0.297,0.891,0.916,1.08,1.08,0.957,–,–,–,–,–
NCI-H1395,0.971,0.831,0.823,0.682,0.712,0.616,1.1,–,0.807,–,–,–,–,–,0.963,0.875,1.03,0.936,0.864
NCI-H1563,0.757,0.692,0.654,–,–,–,0.914,0.88,0.696,0.721,0.874,0.891,0.791,0.68,0.957,0.882,1.39,0.953,1.03
EBC-1,–,–,–,–,–,–,0.0925,0.117,0.107,0.17,0.182,0.202,0.147,0.127,0.212,0.204,0.19,0.211,0.183
NCI-H1793,0.929,0.651,0.779,0.459,0.468,0.361,0.684,0.587,0.22,–,–,–,–,–,0.682,0.794,0.504,0.816,0.723
SW 900,0.548,0.443,0.449,0.433,0.444,0.421,0.86,0.802,0.638,–,–,–,–,–,–,–,–,–,–
NCI-H441,0.271,0.29,0.223,0.235,0.279,0.232,0.892,0.832,0.382,0.833,0.739,0.87,0.843,0.514,–,–,–,–,–
A549,–,–,–,–,0.248,0.286,1.01,–,0.659,0.855,1,0.927,0.793,0.632,1.05,0.935,0.905,1.01,0.946
NCI-H1648,–,–,0.415,0.39,0.449,0.27,–,–,–,–,–,–,–,–,–,–,–,–,–
CAL-12T,0.973,1.16,0.492,–,–,–,1.05,1.11,0.233,0.67,0.734,0.689,0.701,0.584,0.704,0.611,0.701,0.726,0.749
ABC-1,–,–,–,1.14,0.938,0.679,1.07,0.742,0.349,0.941,0.906,0.742,0.44,0.33,1.48,1.29,1.12,1.37,0.961
HCC-44,0.652,–,0.606,0.946,0.955,0.876,–,–,–,0.661,0.712,0.752,0.779,0.748,0.917,1,1.06,0.968,0.996
